Experimental data: patent publication US10597388B2, “Pyridazinone herbicides” (FMC CORPORATION, priority 2014, dated 2020)

Legend:
Type in all cases: in vivo
[1] = tested on: pigweed (Amaranthus retroflexus); assay: Test A greenhouse herbicide test, pre- and postemergence
Summary of the method: (§1)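 Visual injury ratings, 0 (no effect) to 100 (complete control), versus untreated plants after roughly 10 d in a greenhouse. Compounds, formulated in a surfactant-containing non-phytotoxic solvent, were sprayed on loam–sand soil after sowing (pre) or on one- to two-leaf plants 2–10 cm tall (post).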

[2] = tested on: barnyardgrass (Echinochloa crus-galli); assay: as above
Summary of the method: as §1

[3] = tested on: wheat (Triticum aestivum); assay: as above; details: Postemergence
Summary of the method: as §1

[4] = tested on: ragweed (common ragweed, Ambrosia elatior); assay: as above
Summary of the method: as §1

[5] = tested on: ryegrass, Italian (Italian ryegrass, Lolium multiflorum); assay: as above
Summary of the method: as §1

corn (Zea mays) = assay: as above; details: Postemergence
Summary of the method: as §1

[6] = tested on: foxtail, giant (giant foxtail, Setaria faberii); assay: as above
Summary of the method: as §1

kochia (Kochia scoparia) = assay: as above
Summary of the method: as §1

[7] = tested on: barnyardgrass (Echinochloa crus-galli); assay: Test B flooded paddy test; details: 250 g ai/ha, Flood; visual rating on scale of 0 to 100 where 0 is no effect and 100 is complete control; 13 to 15 d after treatment
Summary of the method: (§2)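 Ratings use a 0-100 visual scale, where 100 is complete control, and compare treated plants with controls after 13 to 15 d of greenhouse growth. Compound went straight into paddy water kept 3 cm over the soil surface, applied to seedlings at the 2-leaf stage.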

[8] = tested on: sedge, umbrella (small-flower umbrella sedge, Cyperus difformis); assay: Test B flooded paddy test; details: 250 g ai/ha, Flood; visual rating on scale of 0 to 100 where 0 is no effect and 100 is complete control; 13 to 15 d after treatment
Summary of the method: as §2

rice (Oryza sativa) = assay: Test B flooded paddy test; details: 250 g ai/ha, Flood; visual rating on scale of 0 to 100 where 0 is no effect and 100 is complete control; 13 to 15 d after treatment
Summary of the method: as §2

[9] = tested on: ducksalad (Heteranthera limosa); assay: Test B flooded paddy test; details: 250 g ai/ha, Flood; visual rating on scale of 0 to 100 where 0 is no effect and 100 is complete control; 13 to 15 d after treatment
Summary of the method: as §2

[10] = tested on: galium (catchweed bedstraw, Galium aparine); assay: Test A greenhouse herbicide test, postemergence
Summary of the method: (§3)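 Seedlings in a loam soil and sand mix received formulated compound postemergence at the one- to two-leaf stage. Greenhouse holding lasts approximately 10 d, then injury is scored visually relative to untreated plants, 0 meaning no effect and 100 complete control.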

[11] = tested on: blackgrass (Alopecurus myosuroides); assay: Test A greenhouse herbicide test, postemergence
Summary of the method: as §3

[12] = Postemergence, 125 g ai/ha, 0 to 100 scale where 0 is no effect and 100 is complete control
[13] = Postemergence, 500 g ai/ha, visual rating after approx. 10 d, 0 to 100 scale (0 no effect, 100 complete control)
[14] = Preemergence, 125 g ai/ha, 0 to 100 scale where 0 is no effect and 100 is complete control
[15] = Preemergence, 500 g ai/ha, 0 to 100 scale where 0 is no effect and 100 is complete control
[16] = 125 g ai/ha, 0 to 100 scale where 0 is no effect and 100 is complete control
[17] = 500 g ai/ha, visual rating after approx. 10 d, 0 to 100 scale (0 no effect, 100 complete control)

SMILES	Plant response rating, Pigweed [1, 12]	Plant response rating, Pigweed [1, 13]	Pigweed plant response rating [1, 14]	Plant response rating, Pigweed [1, 15]	Plant response rating, Barnyardgrass [2, 12]	Plant response rating, Barnyardgrass [2, 13]	Barnyardgrass plant response rating [2, 14]	Plant response rating, Barnyardgrass [2, 15]	Plant response rating, Wheat [3, 16]	Plant response rating, Wheat [3, 17]	Plant response rating, Ragweed [4, 12]	Plant response rating, Ragweed [4, 13]	Ragweed plant response rating [4, 14]	Plant response rating, Ragweed [4, 15]	Plant response rating, Ryegrass, Italian [5, 12]	Plant response rating, Ryegrass, Italian [5, 13]	Ryegrass, Italian plant response rating [5, 14]	Plant response rating, Ryegrass, Italian [5, 15]	Plant response rating, Corn (corn (Zea mays); [16])	Plant response rating, Corn (corn (Zea mays); [17])	also measured
Cc1ccc2c(-c3c(O)c(C)nn(C)c3=O)c(C)ccc2c1 [Compound 110]	70	90	90	100	0	10	0	20	0	40	60	100	30	40	70	90	20	80	0	20	Plant response rating, Foxtail, Giant [6, 12]: 0; Plant response rating, Foxtail, Giant [6, 13]: 10; Foxtail, Giant plant response rating [6, 14]: 10; Plant response rating, Foxtail, Giant [6, 15]: 40; Plant response rating, Kochia (kochia (Kochia scoparia); [12]): 50; Plant response rating, Kochia (kochia (Kochia scoparia); [13]): 70; Kochia plant response rating (kochia (Kochia scoparia); [14]): 0; Plant response rating, Kochia (kochia (Kochia scoparia); [15]): 100; Plant response rating, Barnyardgrass [7]: 0; Plant response rating, Sedge, Umbrella [8]: 0; Plant response rating, Rice (rice (Oryza sativa)): 0; Plant response rating, Ducksalad [9]: 0; Plant response rating, Galium [10, 16]: 70; Plant response rating, Galium [10, 17]: 90; Plant response rating, Blackgrass [11, 16]: 20; Plant response rating, Blackgrass [11, 17]: 60
Cc1ccc2ccccc2c1-c1c(OC(=O)C(C)(C)C)c(C#N)nn(C)c1=O [Compound 128]	70	90	90	100	50	80	50	90	0	0	10	30	70	70	20	50	10	30	0	0	Plant response rating, Foxtail, Giant [6, 12]: 50; Plant response rating, Foxtail, Giant [6, 13]: 70; Foxtail, Giant plant response rating [6, 14]: 80; Plant response rating, Foxtail, Giant [6, 15]: 90; Plant response rating, Kochia (kochia (Kochia scoparia); [12]): 0; Plant response rating, Kochia (kochia (Kochia scoparia); [13]): 0; Kochia plant response rating (kochia (Kochia scoparia); [14]): 0; Plant response rating, Kochia (kochia (Kochia scoparia); [15]): 0; Plant response rating, Barnyardgrass [7]: 0; Plant response rating, Sedge, Umbrella [8]: 0; Plant response rating, Rice (rice (Oryza sativa)): 0; Plant response rating, Ducksalad [9]: 30; Plant response rating, Galium [10, 16]: 40; Plant response rating, Galium [10, 17]: 70; Plant response rating, Blackgrass [11, 16]: 0; Plant response rating, Blackgrass [11, 17]: 20
